pIC50: −log10 of the molar value.
System: 996289-038-R-J1-PDC spheroid viability
Experiment: Anticancer human tumor 996289-038-R-J1-PDC patient-derived colon adenocarcinoma cell line growth inhibition [PI3K]
Details: spheroids with HUVEC and MSC; for pIC50: curve of first compound; for viability, T/C: stronger effect = lower value; active = viability on the fitted dose curve at most 10% of control; inactive = the rest
Description: Combinatorial screen of targeted agents with the PI3K inhibitors inavolisib, alpelisib, duvelisib, and copanlisib in multi-cell type tumor spheroids
A high-throughput screen of multi-cell type tumor spheroids was designed to identify active combinations of targeted small molecules and PI3K pathway inhibitors. Complex spheroids include a stromal component modeled by human endothelial cells (HUVEC) and fibroblasts modeled by human mesenchymal stem cells (MSCs). The concentration ranges selected for each drug and investigational agent were based upon clinically achievable concentrations if the clinical Cmax of the agent was known.
Compounds. The drugs and investigational agents: inavolisib (NSC800729), alpelisib (NSC765974), duvelisib (NSC772469), copanlisib (NSC816437), ipatasertib (NSC767898), afuresertib (NSC778305), talazoparib (NSC767125), sapanisertib (NSC764658), selumetinib (NSC741078), tovorafenib (DAY101, NSC766906), vemurafenib (NSC761431), ravoxertinib (NSC781343), sotorasib (NSC818433), MRTX1133 (NSC 836407), abemaciclib (NSC 768073), palbociclib (NSC758247), venetoclax (NSC 766270), SY5609 (NSC837396), enzalutamide (NSC755605), and darolutamide (NSC825331), were obtained from the National Cancer Institute (NCI) Developmental Therapeutics Program Chemical Repository. The FDA-approved anticancer drug set is available from the NCI Developmental Therapeutics Program. […] The stock solutions were prepared in dimethyl sulfoxide (DMSO, Sigma-Aldrich, St. Louis, MO, cat. D2650) at 800-fold the tested concentration and stored at -70 degrees C prior to their use. All drugs and investigational agents were tested over a range starting from a high concentration at or near the clinical Cmax and decreasing in half-log increments. If the clinical Cmax for an agent had not been determined, the highest concentration tested was 10 microM.
Cell Culture. All cells were maintained in an incubator at 37 degrees C and 5% CO2 with 95% humidity. The PDC lines were cultured according to standard operating procedures established by the NCI PDMR (https://pdmr.cancer.gov/sops/default.htm). All PDCs were thawed and cultured in Matrigel-coated flasks prepared with a working solution of 1X Ham's F-12 nutrient mix, without supplementation (Invitrogen, Waltham, MA, cat. 11765054), 100 U/mL penicillin-streptomycin (Invitrogen, cat. 15140122), and 2.5% Matrigel (Corning Inc., Corning, NY, cat. 354248) for the first three passages. The 354836-022-R-J1-PDC, 475296-252-R-J1-PDC, and 997726-040-R-J2-PDC lines were cultured in 6A media, which includes advanced DMEM/F-12 (Thermo Fisher Scientific, cat. 12634028), 10 mM HEPES (Thermo Fisher Scientific, cat. 15630080), 1X GlutaMAX supplement (Thermo Fisher Scientific, cat. 35050061), 0.1 mg/mL primocin (InvivoGen, San Diego, CA, cat. ant-pm-2), 10% defined fetal bovine serum, heat inactivated (HyClone Laboratories Inc., Logan, UT, cat. SH30070.03HI), 50% L-WRN conditioned media (ATCC, cat. CRL-3276), 1.25 mM N-Acetyl-L-cysteine (Sigma-Aldrich, cat. A9165), 10 mM nicotinamide (Sigma-Aldrich, cat. N0636), 1X B-27 supplement (Thermo Fisher Scientific, cat. 17504044), 1X N-2 supplement (Thermo Fisher Scientific, cat. 17502048), and 10 microM Y-27632 dihydrochloride (Tocris Bioscience, Bristol, United Kingdom, cat. 1254). The 624824-186-R-J2-PDC line was cultured in 6C/Colon 1B media, which includes all 6A media components plus 50 ng/mL human EGF recombinant protein (Thermo Fisher Scientific, cat. PHG0311). […]
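Note: spheroids exposed to compounds for seven days before viability read.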
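Throughout, for viability, T/C: luminescence used as a proxy for viable cell amount; percent viability relative to DMSO vehicle control as 100%.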

CNC(=O)c1ccc(N2C(=S)N(c3ccc(C#N)c(C(F)(F)F)c3)C(=O)C2(C)C)cc1F + CC(Nc1ccc2c(c1)OCCn1cc(N3C(=O)OCC3C(F)F)nc1-2)C(N)=O
< 5.00: pIC50 (second compound 0.00316 µM) | pIC50 (second compound 0.01 µM) | pIC50 (second compound 0.0316 µM) | pIC50 (second compound 0.1 µM) | pIC50 (second compound 0.316 µM) | pIC50 (second compound 1 µM)
inactive: viability, T/C (second compound 0.00316 µM, first compound 0.0316 µM) 82.9% | viability, T/C (second compound 0.00316 µM, first compound 0.1 µM) 95.5% | viability, T/C (second compound 0.00316 µM, first compound 0.316 µM) 103% | viability, T/C (second compound 0.00316 µM, first compound 1 µM) 93.1% | viability, T/C (second compound 0.00316 µM, first compound 3.16 µM) 89% | viability, T/C (second compound 0.00316 µM, first compound 10 µM) 110% | viability, T/C (second compound 0.01 µM, first compound 0.0316 µM) 100% | viability, T/C (second compound 0.01 µM, first compound 0.1 µM) 88.6% | viability, T/C (second compound 0.01 µM, first compound 0.316 µM) 100% | viability, T/C (second compound 0.01 µM, first compound 1 µM) 88.2% | viability, T/C (second compound 0.01 µM, first compound 3.16 µM) 98.2% | viability, T/C (second compound 0.01 µM, first compound 10 µM) 102% | viability, T/C (second compound 0.0316 µM, first compound 0.0316 µM) 98.3% | viability, T/C (second compound 0.0316 µM, first compound 0.1 µM) 81.9% | viability, T/C (second compound 0.0316 µM, first compound 0.316 µM) 80.1% | viability, T/C (second compound 0.0316 µM, first compound 1 µM) 87.9% | viability, T/C (second compound 0.0316 µM, first compound 3.16 µM) 92.1% | viability, T/C (second compound 0.0316 µM, first compound 10 µM) 86.4% | viability, T/C (second compound 0.1 µM, first compound 0.0316 µM) 79.4% | viability, T/C (second compound 0.1 µM, first compound 0.1 µM) 85.4% | viability, T/C (second compound 0.1 µM, first compound 0.316 µM) 80.5% | viability, T/C (second compound 0.1 µM, first compound 1 µM) 77.8% | viability, T/C (second compound 0.1 µM, first compound 3.16 µM) 92.9% | viability, T/C (second compound 0.1 µM, first compound 10 µM) 72% | viability, T/C (second compound 0.316 µM, first compound 0.0316 µM) 65.1% | viability, T/C (second compound 0.316 µM, first compound 0.1 µM) 70.8% | viability, T/C (second compound 0.316 µM, first compound 0.316 µM) 73.3% | viability, T/C (second compound 0.316 µM, first compound 1 µM) 74.2% | viability, T/C (second compound 0.316 µM, first compound 3.16 µM) 70.3% | viability, T/C (second compound 0.316 µM, first compound 10 µM) 64% | viability, T/C (second compound 1 µM, first compound 0.0316 µM) 55.5% | viability, T/C (second compound 1 µM, first compound 0.1 µM) 59.3% | viability, T/C (second compound 1 µM, first compound 0.316 µM) 60.4% | viability, T/C (second compound 1 µM, first compound 1 µM) 61.5% | viability, T/C (second compound 1 µM, first compound 3.16 µM) 51.9% | viability, T/C (second compound 1 µM, first compound 10 µM) 53.5%
